Measurements published in PubChem BioAssay AID2060906 (Molecular Pharmacology Branch, DTP, NCI, 2025).

Tested on: 485176-168-R4-J1-PDC complex spheroid growth
Experiment: Anticancer human tumor 485176-168-R4-J1-PDC patient-derived pancreatic adenocarcinoma cell line growth inhibition [RAS]
Details: for viability, T/C: stronger effect = lower value
How it was run: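 Tumour cells grown as complex spheroids with HUVEC endothelial cells and mesenchymal stem cells, treated with RAS pathway inhibitor combinations. Each agent spans half-log steps from near clinical Cmax, or 10 microM where Cmax is unknown.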
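Note: spheroids exposed to compounds for seven days before readout.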
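Throughout, for viability, T/C: luminescence viability expressed relative to DMSO vehicle wells set as 100%.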

Which results are given for `CC1(C)CCC(Nc2ncc(C(F)(F)F)c(-c3c[nH]c4c(P(C)(C)=O)c(C#N)ccc34)n2)CN1` (stereo unspecified) + C#Cc1c(F)ccc2cc(O)cc(-c3ncc4c(N5CC6CCC(C5)N6)nc(OCC56CCCN5CC(F)C6)nc4c3F)c12?
IC50 (curve of first compound, second compound 0.0316 µM): > 300 nM; IC50 (curve of first compound, second compound 0.1 µM): > 300 nM; IC50 (curve of first compound, second compound 0.316 µM): > 300 nM; IC50 (curve of first compound, second compound 1 µM): 262 nM; IC50 (curve of first compound, second compound 3.16 µM): > 300 nM; IC50 (curve of first compound, second compound 10 µM): 114 nM; viability, T/C (second compound 0.0316 µM, first compound 0.000949 µM): 106%; viability, T/C (second compound 0.0316 µM, first compound 0.003 µM): 98.2%; viability, T/C (second compound 0.0316 µM, first compound 0.00949 µM): 83.8%; viability, T/C (second compound 0.0316 µM, first compound 0.03 µM): 59.8%; viability, T/C (second compound 0.0316 µM, first compound 0.0949 µM): 61.8%; viability, T/C (second compound 0.0316 µM, first compound 0.3 µM): 56.2%; viability, T/C (second compound 0.1 µM, first compound 0.000949 µM): 98.5%; viability, T/C (second compound 0.1 µM, first compound 0.003 µM): 114%; viability, T/C (second compound 0.1 µM, first compound 0.00949 µM): 79.1%; viability, T/C (second compound 0.1 µM, first compound 0.03 µM): 59.7%; viability, T/C (second compound 0.1 µM, first compound 0.0949 µM): 56.9%; viability, T/C (second compound 0.1 µM, first compound 0.3 µM): 50%; viability, T/C (second compound 0.316 µM, first compound 0.000949 µM): 106%; viability, T/C (second compound 0.316 µM, first compound 0.003 µM): 121%; viability, T/C (second compound 0.316 µM, first compound 0.00949 µM): 84.5%; viability, T/C (second compound 0.316 µM, first compound 0.03 µM): 55.8%; viability, T/C (second compound 0.316 µM, first compound 0.0949 µM): 53.1%; viability, T/C (second compound 0.316 µM, first compound 0.3 µM): 60.5%; viability, T/C (second compound 1 µM, first compound 0.000949 µM): 118%; viability, T/C (second compound 1 µM, first compound 0.003 µM): 96%; viability, T/C (second compound 1 µM, first compound 0.00949 µM): 80.5%; viability, T/C (second compound 1 µM, first compound 0.03 µM): 68.1%; viability, T/C (second compound 1 µM, first compound 0.0949 µM): 53.5%; viability, T/C (second compound 1 µM, first compound 0.3 µM): 50.4%; viability, T/C (second compound 3.16 µM, first compound 0.000949 µM): 107%; viability, T/C (second compound 3.16 µM, first compound 0.003 µM): 97.9%; viability, T/C (second compound 3.16 µM, first compound 0.00949 µM): 84.5%; viability, T/C (second compound 3.16 µM, first compound 0.03 µM): 63.8%; viability, T/C (second compound 3.16 µM, first compound 0.0949 µM): 58.3%; viability, T/C (second compound 3.16 µM, first compound 0.3 µM): 53%; viability, T/C (second compound 10 µM, first compound 0.000949 µM): 99.3%; viability, T/C (second compound 10 µM, first compound 0.003 µM): 89.3%; viability, T/C (second compound 10 µM, first compound 0.00949 µM): 81.2%; viability, T/C (second compound 10 µM, first compound 0.03 µM): 68.7%; viability, T/C (second compound 10 µM, first compound 0.0949 µM): 46.2%; viability, T/C (second compound 10 µM, first compound 0.3 µM): 46.4%

`CC1(O)CCCC1n1c(=O)c(C(F)F)cc2cnc(NC3CCN(S(C)(=O)=O)CC3)nc21` (stereo unspecified) was tested. Which viability, T/C (compound 0.0316 µM) did it give?
The viability, T/C was 102% [middle of 4 runs].

What about the viability, T/C (compound 0.1 µM) of the same compound?
The viability, T/C was 77.6% [middle of 4 runs].

And the viability, T/C (compound 0.316 µM)?
The viability, T/C was 70.4% [middle of 4 runs].

And the viability, T/C (compound 1 µM)?
The viability, T/C was 72.5% [middle of 4 runs].

And the viability, T/C (compound 3.16 µM)?
The viability, T/C was 57.5% [middle of 4 runs].

What about the viability, T/C (compound 10 µM) of the same compound?
The viability, T/C was 2.58% [middle of 4 runs].

What about the IC50 (curve of compound) of the same compound?
Its IC50 is 2.72 µM [middle of 4 runs].

For `CCN1CCN(Cc2ccc(Nc3ncc(F)c(-c4cc(F)c5nc(C)n(C(C)C)c5c4)n3)nc2)CC1` + CCn1c(-c2cc(N3CCN(C)CC3)cnc2C(C)OC)c2c3cc(ccc31)-c1csc(n1)CC(NC(=O)C1CC1C)C(=O)N1CCCC(N1)C(=O)OCC(C)(C)C2, which IC50 (curve of first compound, second compound 0.000949 µM) is on record?
The IC50 was > 1000 nM.

What about the IC50 (curve of first compound, second compound 0.003 µM) of the same compound?
The IC50 was > 1000 nM.

What about the IC50 (curve of first compound, second compound 0.00949 µM) of the same compound?
Its IC50 is 756 nM.

And the IC50 (curve of first compound, second compound 0.03 µM)?
The IC50 was 938 nM.

And the IC50 (curve of first compound, second compound 0.0949 µM)?
Its IC50 is 929 nM.

And the IC50 (curve of first compound, second compound 0.3 µM)?
Its IC50 is > 1000 nM.

And the viability, T/C (second compound 0.000949 µM, first compound 0.00316 µM)?
Its viability, T/C is 78.7%.

And the viability, T/C (second compound 0.000949 µM, first compound 0.01 µM)?
Its viability, T/C is 80.9%.

And the viability, T/C (second compound 0.000949 µM, first compound 0.0316 µM)?
Its viability, T/C is 81%.

And the viability, T/C (second compound 0.000949 µM, first compound 0.1 µM)?
The viability, T/C was 67.4%.

What about the viability, T/C (second compound 0.000949 µM, first compound 0.316 µM) of the same compound?
Its viability, T/C is 73%.

And the viability, T/C (second compound 0.000949 µM, first compound 1 µM)?
Its viability, T/C is 54.8%.

And the viability, T/C (second compound 0.003 µM, first compound 0.00316 µM)?
Its viability, T/C is 84.9%.

And the viability, T/C (second compound 0.003 µM, first compound 0.01 µM)?
The viability, T/C was 76.5%.

And the viability, T/C (second compound 0.003 µM, first compound 0.0316 µM)?
The viability, T/C was 85.2%.

What about the viability, T/C (second compound 0.003 µM, first compound 0.1 µM) of the same compound?
Its viability, T/C is 66.9%.

What about the viability, T/C (second compound 0.003 µM, first compound 0.316 µM) of the same compound?
Its viability, T/C is 62.7%.

What about the viability, T/C (second compound 0.003 µM, first compound 1 µM) of the same compound?
Its viability, T/C is 53.8%.

What about the viability, T/C (second compound 0.00949 µM, first compound 0.00316 µM) of the same compound?
Its viability, T/C is 75.3%.

And the viability, T/C (second compound 0.00949 µM, first compound 0.01 µM)?
The viability, T/C was 85.8%.

What about the viability, T/C (second compound 0.00949 µM, first compound 0.0316 µM) of the same compound?
Its viability, T/C is 73.4%.

And the viability, T/C (second compound 0.00949 µM, first compound 0.1 µM)?
The viability, T/C was 70.2%.

What about the viability, T/C (second compound 0.00949 µM, first compound 0.316 µM) of the same compound?
Its viability, T/C is 63%.

And the viability, T/C (second compound 0.00949 µM, first compound 1 µM)?
The viability, T/C was 45.9%.

What about the viability, T/C (second compound 0.03 µM, first compound 0.00316 µM) of the same compound?
Its viability, T/C is 77.5%.

What about the viability, T/C (second compound 0.03 µM, first compound 0.01 µM) of the same compound?
Its viability, T/C is 68.1%.

What about the viability, T/C (second compound 0.03 µM, first compound 0.0316 µM) of the same compound?
The viability, T/C was 75.3%.

What about the viability, T/C (second compound 0.03 µM, first compound 0.1 µM) of the same compound?
The viability, T/C was 58.3%.

What about the viability, T/C (second compound 0.03 µM, first compound 0.316 µM) of the same compound?
The viability, T/C was 63.8%.

And the viability, T/C (second compound 0.03 µM, first compound 1 µM)?
Its viability, T/C is 47.9%.

What about the viability, T/C (second compound 0.0949 µM, first compound 0.00316 µM) of the same compound?
Its viability, T/C is 64.7%.

And the viability, T/C (second compound 0.0949 µM, first compound 0.01 µM)?
The viability, T/C was 74.7%.

What about the viability, T/C (second compound 0.0949 µM, first compound 0.0316 µM) of the same compound?
The viability, T/C was 59.2%.

And the viability, T/C (second compound 0.0949 µM, first compound 0.1 µM)?
Its viability, T/C is 55.1%.

And the viability, T/C (second compound 0.0949 µM, first compound 0.316 µM)?
Its viability, T/C is 51.6%.

And the viability, T/C (second compound 0.0949 µM, first compound 1 µM)?
The viability, T/C was 52%.

And the viability, T/C (second compound 0.3 µM, first compound 0.00316 µM)?
The viability, T/C was 54.9%.

What about the viability, T/C (second compound 0.3 µM, first compound 0.01 µM) of the same compound?
Its viability, T/C is 76.6%.

And the viability, T/C (second compound 0.3 µM, first compound 0.0316 µM)?
The viability, T/C was 70.9%.

What about the viability, T/C (second compound 0.3 µM, first compound 0.1 µM) of the same compound?
Its viability, T/C is 65.3%.

And the viability, T/C (second compound 0.3 µM, first compound 0.316 µM)?
Its viability, T/C is 53.5%.

What about the viability, T/C (second compound 0.3 µM, first compound 1 µM) of the same compound?
Its viability, T/C is 51%.
